# Results taken from ChEMBL document CHEMBL1201862, “PubChem BioAssay data set” (2004).
#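 Assay format: 96-well plates, 48-hour exposure. GI50 = concentration required for 50% inhibition of growth.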 Activity calls are given as the source filed them. Rule as the data show it: active = GI50 up to about 1.1 µM and inactive = higher.
# How the values were obtained:
# Assay in all cases: growth of human tumour cells (NCI), 48 h
# [1] = test system: TK-10
# [2] = test system: Hs-578T
# [3] = test system: SK-MEL-2
# [4] = test system: NCI-H460
# [5] = test system: NCI/ADR-RES
# [6] = test system: A549
# [7] = test system: HCT-116
# [8] = test system: HCT-15
# [9] = test system: HCC 2998
# [10] = test system: CAKI-1
# [11] = test system: OVCAR-5
# [12] = test system: MDA-MB-231
# [13] = test system: K562
# [14] = test system: SK-MEL-5
# [15] = test system: BT-549
# [16] = test system: HT-29
# [17] = test system: SF-268
# [18] = test system: EKVX
# [19] = test system: SF-539
# [20] = test system: RXF 393
# [21] = test system: UACC-62
# [22] = test system: COLO 205
# [23] = test system: SF-295
# [24] = test system: ACHN
# [25] = test system: HL-60
# [26] = test system: SNB-19
# [27] = test system: OVCAR-4
# [28] = test system: NCI-H522
# [29] = test system: IGROV-1
# [30] = test system: UACC-257
# [31] = test system: CCRF-CEM
# [32] = test system: HOP-92
# [33] = test system: PC-3
# [34] = test system: KM12
# [35] = test system: OVCAR-8
# [36] = test system: RPMI-8226
# [37] = test system: SW-620
# [38] = test system: SK-MEL-28
# [39] = test system: NCI-H226
# [40] = test system: Malme-3M
# [41] = test system: HOP-62
# [42] = test system: UO-31
# [43] = test system: SK-OV-3
# [44] = test system: MCF7
# [45] = test system: MDA-MB-435
# [46] = test system: MOLT-4
# [47] = test system: SR
# [48] = test system: U-251
# [49] = test system: OVCAR-3
# [50] = test system: SNB-75
# [51] = test system: M14
# [52] = test system: 786-0
# [53] = test system: MDA-N
# [54] = test system: SN12C
# [55] = test system: T47D
# [56] = test system: A498
# [57] = test system: LOX IMVI
# [58] = test system: NCI-H23
# [59] = test system: DU-145
structure (smiles),measurement,setting,value
O=C(O)c1cc2ccccc2c(/N=N/c2ccc(S(=O)(=O)Nc3ncccn3)cc2)c1O,GI50,[1],> 100 µM (inactive)
same,GI50,[2],> 100 µM (inactive)
same,GI50,[3],> 100 µM (inactive)
same,GI50,[4],> 100 µM (inactive)
same,GI50,[5],> 100 µM (inactive)
same,GI50,[6],> 100 µM (inactive)
same,GI50,[7],> 100 µM (inactive)
same,GI50,[8],> 100 µM
same,GI50,[9],> 100 µM (inactive)
same,GI50,[10],> 100 µM (inactive)
same,GI50,[11],> 100 µM (inactive)
same,GI50,[12],> 100 µM (inactive)
same,GI50,[13],> 100 µM (inactive)
same,GI50,[14],> 100 µM (inactive)
same,GI50,[15],> 100 µM (inactive)
same,GI50,[16],> 100 µM (inactive)
same,GI50,[17],> 100 µM (inactive)
same,GI50,[18],> 100 µM (inactive)
same,GI50,[19],> 100 µM (inactive)
same,GI50,[20],> 100 µM (inactive)
same,GI50,[21],> 100 µM (inactive)
same,GI50,[22],> 100 µM (inactive)
same,GI50,[23],> 100 µM (inactive)
same,GI50,[24],> 100 µM (inactive)
same,GI50,[25],> 100 µM (inactive)
same,GI50,[26],> 100 µM (inactive)
same,GI50,[27],> 100 µM (inactive)
same,GI50,[28],> 100 µM (inactive)
same,GI50,[29],> 100 µM (inactive)
same,GI50,[30],> 100 µM (inactive)
same,GI50,[31],> 100 µM (inactive)
same,GI50,[32],> 100 µM (inactive)
same,GI50,[33],> 100 µM (inactive)
same,GI50,[34],> 100 µM (inactive)
same,GI50,[35],> 100 µM (inactive)
same,GI50,[36],> 100 µM (inactive)
same,GI50,[37],> 100 µM (inactive)
same,GI50,[38],> 100 µM (inactive)
same,GI50,[39],> 100 µM (inactive)
same,GI50,[40],> 100 µM (inactive)
same,GI50,[41],> 100 µM (inactive)
same,GI50,[42],> 100 µM (inactive)
same,GI50,[43],> 100 µM (inactive)
same,GI50,[44],> 100 µM (inactive)
same,GI50,[45],> 100 µM (inactive)
same,GI50,[46],> 100 µM (inactive)
same,GI50,[47],> 100 µM (inactive)
same,GI50,[48],> 100 µM (inactive)
same,GI50,[49],> 100 µM (inactive)
same,GI50,[50],> 100 µM (inactive)
same,GI50,[51],> 100 µM (inactive)
same,GI50,[52],> 100 µM (inactive)
CNc1ccc(C(=O)CC(O)CCC(C)C2OC(=O)CC(O)CC(=O)CC(O)CC(O)CC(O)CC(O)CC3(O)CC(O)C(C(=O)NCCN4CCOCC4)C(CC(OC4OC(C)C(O)C(N)C4O)\C=C/C=C\C=C/C=C/C=C/C=C\C=C/C2C)O3)cc1 (stereo not given),GI50,[1],1.52 µM (inactive)
same,GI50,[3],6.43 µM (inactive)
same,GI50,[7],> 100 µM (inactive)
same,GI50,[15],1.64 µM (inactive)
same,GI50,[19],16 µM (inactive)
same,GI50,[20],> 100 µM (inactive)
same,GI50,[21],1.68 µM (inactive)
same,GI50,[53],0.701 µM (active)
same,GI50,[26],> 100 µM (inactive)
same,GI50,[27],2.74 µM (inactive)
same,GI50,[54],0.417 µM (active)
same,GI50,[28],0.493 µM (active)
same,GI50,[29],6.34 µM (inactive)
same,GI50,[30],0.537 µM (active)
same,GI50,[32],> 100 µM (inactive)
same,GI50,[34],2.84 µM (inactive)
same,GI50,[55],> 100 µM (inactive)
same,GI50,[35],4.23 µM (inactive)
same,GI50,[37],> 100 µM (inactive)
same,GI50,[39],3.81 µM (inactive)
same,GI50,[40],0.267 µM (active)
same,GI50,[56],0.321 µM (active)
same,GI50,[42],0.404 µM (active)
same,GI50,[45],1.56 µM (inactive)
same,GI50,[46],2.3 µM (inactive)
same,GI50,[50],> 100 µM (inactive)
same,GI50,[52],1.01 µM (active)
O=C1C2=Cc3ccccc3OC2(O)Oc2ccc(O)cc21 (stereo not given),GI50,[1],> 100 µM (inactive)
same,GI50,[3],> 100 µM (inactive)
same,GI50,[5],49.9 µM (inactive)
same,GI50,[6],53.6 µM (inactive)
same,GI50,[7],> 100 µM (inactive)
same,GI50,[57],> 100 µM (inactive)
same,GI50,[8],38.6 µM
same,GI50,[9],> 100 µM (inactive)
same,GI50,[10],48.4 µM (inactive)
same,GI50,[11],> 100 µM (inactive)
same,GI50,[12],> 100 µM (inactive)
same,GI50,[13],28.1 µM (inactive)
same,GI50,[58],84.1 µM (inactive)
same,GI50,[14],44.1 µM (inactive)
same,GI50,[15],4.71 µM (inactive)
same,GI50,[16],> 100 µM (inactive)
same,GI50,[17],> 100 µM (inactive)
same,GI50,[18],> 100 µM (inactive)
same,GI50,[19],> 100 µM (inactive)
same,GI50,[20],> 100 µM (inactive)
same,GI50,[21],61.8 µM (inactive)
same,GI50,[22],40.8 µM (inactive)
same,GI50,[23],> 100 µM (inactive)
same,GI50,[24],15.8 µM (inactive)
same,GI50,[53],> 100 µM (inactive)
same,GI50,[54],> 100 µM (inactive)
same,GI50,[29],56.4 µM (inactive)
same,GI50,[30],> 100 µM (inactive)
same,GI50,[31],7.83 µM (inactive)
same,GI50,[32],46.8 µM (inactive)
same,GI50,[33],73.3 µM (inactive)
same,GI50,[34],> 100 µM (inactive)
same,GI50,[55],> 100 µM (inactive)
same,GI50,[35],69.5 µM (inactive)
same,GI50,[36],23.1 µM (inactive)
same,GI50,[37],> 100 µM (inactive)
same,GI50,[38],> 100 µM (inactive)
same,GI50,[39],> 100 µM (inactive)
same,GI50,[40],91.2 µM (inactive)
same,GI50,[56],> 100 µM (inactive)
same,GI50,[41],57.1 µM (inactive)
same,GI50,[43],> 100 µM (inactive)
same,GI50,[44],> 100 µM (inactive)
same,GI50,[59],> 100 µM (inactive)
same,GI50,[45],> 100 µM (inactive)
same,GI50,[46],62.5 µM (inactive)
same,GI50,[48],> 100 µM (inactive)
same,GI50,[49],36.7 µM (inactive)
same,GI50,[50],35.9 µM (inactive)
same,GI50,[51],> 100 µM (inactive)
same,GI50,[52],> 100 µM (inactive)
